The subject of one experiment is 7SM0032. The experiment in a line: Cell growth, CellTitor-Glo assay, 72 h. The conditions noted are these: Homo sapiens; 7SM0032 (non-malignant). It counts as cell-based, human. The method, then: The human NB cell lines, SK-N-DZ, SK-N-BE(2)c, SK-N-AS, and LAN-5 obtained from the American Type Culture Collection (Rockville, MD), were cultured in DMEM with 10% fetal bovine serum (FBS), 100 units/ml penicillin, and 100 μg/ml streptomycin in the presence of 5% CO2 at 37° C. Human PBMCs from a healthy donor were purchased from Sanguine BioSciences (Valencia, CA) and grown in RPMI1640 with 10% FBS, 100 units/ml penicillin, 100 μg/ml streptomycin, and 10 ng/ml IL-2 in the presence of 5% CO2 at 37° C. Human embryonic progenitor cell line 7SM0032 was acquired from Millipore (Billerica, MA) and grown in the hEPM-1 Media Kit purchased from the same company. The plasmid pCBASce expresses the rare cutting I-SceI meganuclease. The U20S-derived cell lines, DR-GFP and EJ5-GFP, each contain a stably transfected reporter gene for DSB repair mediated by HR and end joining (EJ), respectively. These cell lines were cultured in DMEM medium with 10% FBS at 37° C. in the presence of 5% CO2.
To measure the effect of the compounds on cell growth, cells were seeded at 3×10^4/ml into a 96-well plate. Once attached, cells were treated with various concentrations of AOH1160 for 72 h. Cell growth was measured by the CellTitor-Glo assay (Promega, Madison, WI) according to the manufacturer's instructions. To measure apoptosis, cells were seeded at 1×10^5/ml onto a chamber slide. Once attached, cells were treated with the 500 nM AOH1160 for 24 h. Cells were fixed and analyzed by a TUNEL assay using the TMR red in situ cell death detection kit (Roche Diagnostics, Indianapolis, IN).

Another experiment deals with T1, Recombinant human PCNA (Homo sapiens, UniProt P12004).
T1 construct: made in house
As to the kind of experiment: Saturation Transfer Difference (STD) NMR, competition with T3. Particulars: 1 μM PCNA, 30 μM T3, 3.2 μM AOH1160. It counts as binding. The method, then: Recombinant human PCNA was purified and exchanged to D2O-based phosphate buffered saline (PBS), pH 7.2. […] The reference spectra were acquired under the same condition without PCNA. 5 uM DSS was used as an internal reference to determine the reported ligand concentration in solution. All NMR experiments were carried out at 25° C. on 600 MHz Bruker Avance equipped with 5 mm triple resonance cryogenic probe. STD (Saturation Transfer Difference) NMR spectra were acquired with transients ranging from 2560 to 32000, spectral width 8012 Hz with 24 k data points. The recycle delay was 2.8 s. Selective saturation was composed of 50 gauss shaped pulses at a field strength of 86 Hz, and the duration of each pulse is 50 ms with a 500 μs delay between pulses. The spin lock filter used to suppress protein signal was optimized to 60 ms at field strength of 5 kHz. The frequency for protein saturation was optimized to be 0.9 ppm; the ligand signals were not disturbed with the employed selective saturation condition at this frequency. The reference spectrum was acquired with saturation irradiated at −30 ppm. To eliminate potential artifacts, the saturation and reference experiments were acquired in an interleaved manner, and the finished experiments were separated into two 1D data for analysis. The peak integration was carried out with Bruker Topspin software. […]

Experiment [1] relates to replication fork extension. As to the kind of experiment: DNA fiber assay. The conditions noted are these: CldU / IdU labeling before and after treatment. The format is cell-based. On the procedure: FIGS. 3A-3B. […] Synchronized cells were sequentially incubated in the presence of CldU and IdU before and after AOH1160 treatment, respectively. Cells sequentially incubated with the same two nucleotide analogues but without AOH1160 were used as control. Images of FIG. 3A depict representative images of the labeled DNA strands from cells treated with or without AOH1160. FIG. 3B depicts the lengths of CldU (light gray) and IdU (dark gray) incorporated DNA segments measured from more than 30 independent DNA strands in cells treated with or without AOH1160 were averaged and graphed with standard deviations.

For the next experiment, the system named is A549. The experiment in a line: AOH1160 IC50 in additional cancer cell lines (Table 4). The format is cell-based. The conditions noted are these: Homo sapiens; A549, Non-Small Cell Lung. The source says: (§1) In addition numerous analogs related to AOH1160 were screened in numerous neuroblastoma cell lines for anti-cancer activity (Table 2). AOH1160 was screened for anti-cancer activity in additional cancer cell lines besides neuroblastoma (Table 3).

The test system of a further experiment is DU-145. The experiment is described as above. The format is cell-based. Particulars: Homo sapiens; DU-145, Prostate.
Description: as §1

For another experiment, the system named is HCT-116. The description is as above. The format is cell-based. The conditions noted are these: Homo sapiens; HCT-116, Colon.
Description: as §1

In the next experiment the test system is HCT-15. The experiment is described as above. The format is cell-based. The conditions noted are these: Homo sapiens; HCT-15, Colon.
Description: as §1

Another experiment has as its system HL-60. The experiment is described as above. The format is cell-based. Particulars: Homo sapiens; HL-60, Leukemia.
Description: as §1

The subject of the next experiment is NCI-H23. Described as above. The format is cell-based. The conditions noted are these: Homo sapiens; NCI-H23, Non-Small Cell Lung.
Description: as §1

A further experiment relates to NCI-H322M. The experiment is described as above. Particulars: Homo sapiens, Non-Small Cell Lung. The format is cell-based.
Description: as §1

A further experiment concerns OVCAR-8. The experiment is described as above. It counts as cell-based. Particulars: Homo sapiens; OVCAR-8, Ovarian.
Description: as §1

Here are results for 1 molecule from US12054447B2, “PCNA inhibitors” (City of Hope, priority 2015, dated 2024).

T1 sequence (P12004 whole entry): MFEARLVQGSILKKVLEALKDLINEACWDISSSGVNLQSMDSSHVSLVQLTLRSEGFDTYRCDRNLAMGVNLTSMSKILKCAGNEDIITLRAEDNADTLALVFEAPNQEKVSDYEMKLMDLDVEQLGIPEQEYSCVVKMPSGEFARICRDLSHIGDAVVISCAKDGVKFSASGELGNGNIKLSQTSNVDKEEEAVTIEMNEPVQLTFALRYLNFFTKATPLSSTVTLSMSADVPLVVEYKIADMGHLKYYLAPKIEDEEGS

Usually IC50 stands for the concentration that gives 50% inhibition. Low readings indicate greater potency in that assay, high ones weaker potency in that assay. For `O=C(CNC(=O)c1cccc2ccccc12)Nc1ccccc1Oc1ccccc1` [AOH1160], the IC50 was more than 20000 nM in the experiment with 7SM0032; 173 nM with A549; 200 nM in the experiment with DU-145; 102 nM with HCT-116; 133 nM in the experiment on HCT-15; 128 nM with HL-60. Besides, the IC50 in the experiment on NCI-H23 was determined as 194 nM; with NCI-H322M, 157 nM; with OVCAR-8, 204 nM. Further, the “competition with T3 for binding to PCNA” value on Recombinant human PCNA is “competes with T3 for binding to PCNA”. Moreover, the replication fork extension result in experiment [1] is listed as “inhibition of replication fork extension”.
